The source of these data is a melting point compilation (Tetko et al.; mined from patent text by program, amines drawn as free bases though some values may be those of a salt).

What is called melting point is the temperature, or range, at which the solid turns liquid.

In turn, `COC(=O)c1cc(O)n(C(C)C)n1` yielded a melting point of 162 to 163 °C. As to `COc1cccc2c1C13CCN(C(=O)C4CCC4)C(C2)C1CCC(=O)C3` (stereo not given), the melting point is 125 to 126 °C. The same measure for `COCCOc1ccc(CCNC(=O)/C=C/c2cccs2)cc1S(N)(=O)=O`: 140 °C; for `O=C(N[C@H](Cc1ccc(C(F)(F)F)cc1)[C@@H](O)c1ccc(F)cc1)c1cccc2cccnc12` (racemic): 83 to 84 °C.

For the molecule `C[C@@H](c1ccc(-c2ncc(C(=O)N(C)C)s2)cc1)N1CC[C@](CC(C)(C)O)(c2ccccc2)OC1=O`, the melting point fell in the range of 110 to 112 °C. With `CCCOc1ccc(S(=O)(=O)NCCN(C)C)cc1-c1nc2cc3nc[nH]c3cc2c(=O)[nH]1`, the melting point lay within 212 to 214 °C.

In turn, `N#CCc1cccc2cnccc12` yielded a melting point of 130 to 131 °C. For the molecule `COC(=O)C(C)Nc1nc(Cl)ccc1[N+](=O)[O-]` (stereo not given), the melting point was 113 to 114 °C. The same measure for `CN1C(=O)C(NC(=O)CCc2ccccc2)N=C(N(C)C2CCCCC2)c2ccccc21` (stereo not given): 167 to 168 °C; for `CC(N)=CC(=O)CS(=O)(=O)N(C)Cc1ccccc1`: 115 to 118 °C. In the case of `COC(=O)Nc1cc(C(C)(C)C)on1` it was 55.5 to 58.5 °C; in that of `O=C(CNC(=O)n1ccnc1)N(c1ccccc1)c1ccccc1`, 162 °C.

On to `O=S1c2ccccc2Oc2ccc(-c3nnn[nH]3)cc21` (stereo not given), for which the melting point was 267 to 268 °C. In the case of `Fc1ccc(Nc2nc(N/N=C/c3c(F)cccc3F)nc(N3CCOCC3)n2)cc1` it was 156 °C; in that of `O=C(c1ccccc1)c1ccc(C(=O)c2ccc(C(=O)c3ccccc3)cc2)cc1`, 224 to 228 °C; in that of `S=C(Cc1cccs1)N1CCCCC1`, 51.5 to 52 °C. In the case of `O=C1c2cc3ccccc3cc2C(=O)c2c(Oc3ccccc3)cccc21` it was 195 to 200 °C; in that of `COC(=O)C(C(C)=O)=C(N)C(F)(F)F`, 63 to 65 °C; in that of `N=c1nc(N)c2ncn(Cc3ccccc3)c2c(N)n1`, 202 to 204 °C.

In turn, `C[C@@H](NC(=O)c1csc(-c2ccc(C(F)(F)F)cc2)n1)[C@](O)(Cn1cncn1)c1ccc(F)cc1F` displayed a melting point of 167 to 168 °C. Take `CC(C)c1ccc(-c2cc(C(=O)O)c(-c3cccc(C(=O)O)c3)o2)cc1`: the melting point is 236 to 239 °C.

On to `CNc1c(OC)cc(Cc2cnc(N)nc2N)cc1OC`, for which the melting point is 204 °C. On to `CCOC(=O)C1=C(CO)NC(CF)=C(C(=O)OCC)C1c1cccc([N+](=O)[O-])c1` (stereo not given), for which the melting point fell in the range of 149 to 150 °C.

In the case of `CC(=O)Nc1cc(C(=O)OCCN2CCCCC2)c2oc(-c3ccccc3)cc2c1`, the melting point was in the range of 172 to 174 °C. On to `CC(C)(C)C1CC(=CO)C(Cl)=C(C=O)C1` (stereo not given), for which the melting point was in the range of 154 to 157 °C. Consider `CC(=O)Nc1cc(F)ccc1C(=O)NCCN1CCC(n2c(=O)[nH]c3cc(Cl)ccc32)CC1`, for which the melting point was found to be 196 °C. For the molecule `COc1ccc(C(=O)c2cccc(C#N)c2)cc1`, the melting point was 85 to 88 °C. For the molecule `O=C(O)CN(CC(=O)O)C(=O)c1cc(OCCCCCCCCCCCCOc2ccccc2)ccc1OCc1ccccc1`, the melting point lay in the range of 70 to 75 °C.

As for `Nc1cccc(C(=O)N2N=C(C(F)(F)F)CC2(O)c2cc(F)c(Cl)cc2F)c1` (stereo not given), the melting point fell in the range of 123 to 124 °C.

As to `CC(C)CNc1c([N+](=O)[O-])c2nnnn2c2ccccc12`, the melting point was in the range of 152 to 154 °C. The molecule `CS(=O)(=O)Nc1ccc(OCCN2CCC(C(=O)c3ccc(NS(C)(=O)=O)cc3)CC2)cc1` returned a melting point of 168 to 172 °C. For `CCOC(=O)Nc1ccc(-n2ccc(C#N)c2)c(F)c1`, the melting point was 188 to 190 °C.

`CCc1cn2c(N)c(Cl)cc(C(=O)NCC3CCN(CC4(O)CCOCC4)CC3)c2n1` showed a melting point of 229 °C.

The molecule `COc1cccc(-c2nc3n(n2)CCc2cc(OC)c(OC)cc2-3)c1` registered a melting point of 132 to 133 °C. In the case of `CCCc1nn(-c2ccc(C(F)(F)F)cn2)cc1CCCCOc1ccc(CCC(=O)O)c(OC)c1` it was 91 to 92 °C. In the case of `Cc1cc(-n2cncn2)c2cccc(OCc3c(Cl)ccc(S(=O)(=O)N4CCC[C@H]4C(=O)NCC4CCN(CC(=O)OC(C)(C)C)CC4)c3Cl)c2n1`, the melting point is 50 °C. Consider `CC(=O)Nc1cc([N+](=O)[O-])ccc1CBr`, for which the melting point was in the range of 188 to 189 °C. Turning to `CCOCc1nc2c(N)nc(C)cc2n1CC(C)C`, the melting point is 72 to 74 °C. `CCOC(=O)C(CO)C(C)c1cccnc1` (stereo not given) registered a melting point of 128 to 131 °C.

With `CN1C(=O)CC[C@]2(C)c3ccc(-c4ccc(F)c(F)c4)cc3CC[C@@H]12`, the melting point lay in the range of 143 to 148 °C. `COc1ccc2c(c1)c1c3c(c(-c4ccccc4)cc1n2CCO)C(=O)NC3=O` displayed a melting point of 262 to 264 °C. As to `Cc1cc([N+](=O)[O-])ccc1S(=O)(=O)n1c(Br)nc(Br)c1C`, the melting point was 187 to 189 °C. Molecule `CN1C[C@H](CN2CCN(C(c3ccccc3)c3ccccc3)CC2)C[C@@H]2c3cccc4[nH]cc(c34)C[C@H]21` showed a melting point of 230 to 233 °C. The same measure for `CC(=O)NC1=NN(c2ccc(C(=O)C(F)(F)F)cc2)CC1`: 243 to 244 °C; for `CC(=O)N(CCCCn1ccnc1)C1=Nc2cccc3cccc1c23`: 127 to 130 °C; for `O=C(Nc1ccc(Cl)cn1)c1cc(Cl)ccc1NCC1CCN(C(=O)c2cccs2)CC1`: 163 to 165 °C. Take `Cc1ccccc1C(=O)Nc1ccc(C(=O)N2Cc3ccccc3-c3ccccc32)cc1`: the melting point fell in the range of 190 to 194 °C. `Nc1ccc(Cl)cc1-c1ncn[nH]1` returned a melting point of 170 to 175 °C.

The molecule `COc1cc(CCCN(C)Cc2ccc(OC)c(OC)c2)ccc1NC(=O)c1cccc2c(=O)c3cccc(C)c3[nH]c12` gave a melting point of 111 °C.

The molecule `CCOC(=O)c1cc2c(C)c([N+](=O)[O-])c(C)c(C)c2o1` came in with a melting point of 126 to 128 °C. The molecule `Clc1ccc([C@@H]2CNc3c(ccc4ccccc34)S2)cc1` came in with a melting point of 205 to 206 °C. In the case of `Cc1oc(-c2ccco2)nc1COc1ccc(Cn2cc(CCC(=O)O)c(-c3ccc(F)cc3)n2)cc1`, the melting point was 125 to 126 °C.

Molecule `CC(=O)NC[C@H]1CN(c2ccc(N3CCC(n4ccnc4)CC3)c(F)c2)C(=O)O1` came in with a melting point of 160 to 162 °C.

Regarding `CCCc1cc(C#N)sc1-c1ccc2c(c1)C(C)(C)OC(=S)N2`, the melting point lay in the range of 174 to 175 °C. `CC(=O)OCC1OC(n2cnc(C(N)=O)c2Br)C(OC(C)=O)C1OC(C)=O` (stereo not given) came in with a melting point of 133 to 135 °C.

`Cc1ccc(Nc2nc(-c3ccccc3)c(C(=O)c3sc(Nc4ccc(C)cc4)nc3-c3ccccc3)s2)cc1` showed a melting point above 285 °C. In turn, `CCN1c2ncccc2C(=O)Nc2c(C)cc(N3CCC(O)C3)nc21` (stereo not given) came in with a melting point of 131 to 134 °C.

For the molecule `CCOC(=O)c1cn(Cc2ccc(Oc3ccccc3)cc2)nc1OCc1ccc(OCc2nc(-c3ccco3)oc2C)c(OC)c1`, the melting point lay within 98 to 99 °C. Regarding `CC(C#Cc1ccc(C=Cc2ccc(F)cc2)o1)N(O)C(N)=O` (stereo not given), the melting point came out at 177 °C. The molecule `COc1ccc([C@H]2CCc3ccccc3[C@@H]2C#N)cc1` (racemic) registered a melting point of 126 to 131 °C. Molecule `CCCc1nc(C)nc(NN)c1Cc1ccc(-c2ccccc2C#N)cc1` came in with a melting point of 156 °C.

As for `CC(=O)Cn1nc(-c2sc(N)nc2-c2ccccc2)ccc1=O`, the melting point was in the range of 216 to 219 °C. The molecule `COC(=O)c1ccc(-n2cccc2C=O)cc1` gave a melting point of 103 to 105 °C. The molecule `Cc1cc(C)n(-c2ccc(NN)nn2)n1` came in with a melting point of 142 to 143 °C. `Clc1ccccc1-c1ccc2nncn2c1` showed a melting point of 177 to 180 °C. The same measure for `COc1ccc2cc(CCl)ccc2c1`: 63 to 65 °C; for `CCCS(=O)(=O)c1cc([C@H]2CC[C@H](c3cc(OC)c(OC)c(OC)c3)O2)cc(OC)c1OCc1ccccc1` (relative stereo): 176 to 177 °C; for `Cn1ncnc1COc1nn2c(-c3ccccc3F)nnc2cc1-c1cccc(F)c1`: 204 to 206 °C. `CNC(=O)n1nc(Oc2ccc(C(F)(F)F)cc2[N+](=O)[O-])cc1C` gave a melting point of 70 to 72 °C. For `Cc1c(O)cccc1C(=O)N[C@@H](Cc1ccccc1)[C@H](O)C(=O)N1CSC(C)(C)[C@H]1C(=O)NCc1ccc(N)cc1`, the melting point fell in the range of 107 to 109 °C. Consider `Cc1ccc(C(=O)Cn2c3c(sc2=O)CCCC3)cc1`, for which the melting point fell in the range of 108 to 110 °C. Regarding `COc1cc(S(N)(=O)=O)cc(C(=O)Cl)c1OC`, the melting point came out at 153 °C. `CCCCCCCCCCCCCCCCn1c(-c2ccc(Cl)c(N)c2)nnc1-c1ccc(Cl)c(N)c1` registered a melting point of 88 to 90 °C. The molecule `Cc1cc(C(=O)O)c2cccc(OCc3ccccc3)c2n1` displayed a melting point of 241 °C. As for `O=C(OCc1ccccc1[N+](=O)[O-])C(F)(F)C(F)(F)C(F)(F)C(F)(F)C(F)(F)C(F)(F)C(F)(F)F`, the melting point is 34 to 35 °C. As for `C=C1CC2C3CCC4=CC(=O)C=CC4(C)C3=CCC2(C)C1(O)C(C)=O` (stereo not given), the melting point was in the range of 185 to 190 °C.

For `CC(OC(=O)C12CC3CC(CC(C3)C1)C2)c1ccncc1` (single isomer, unassigned; (-)), the melting point was in the range of 164 to 166 °C.

For the molecule `COc1cc2c(cc1OC)-c1c(C(=O)c3ccccc3)c(-c3cc(C)c(O)c(C)c3)c(C)n1CC2`, the melting point is 194 to 196 °C. With `Cc1cc(-c2ccnc(NCc3ccccc3)c2)n(-c2cccc(F)c2)n1`, the melting point was in the range of 94 to 96 °C. Regarding `Cc1ccc(-c2c(Cl)ncnc2NS(=O)(=O)c2ccc(C(C)(C)CO)cc2)cc1`, the melting point lay in the range of 227 to 228 °C. `Cc1ccc(N(C(=O)CCl)c2c(Cl)cccc2Cl)cc1` gave a melting point of 130 °C. The molecule `COc1cc(C(=O)O)ccc1Cc1cn(C)c2ccc(C(=O)N(C)CC3CCCC3)cc12` had a melting point of 112 to 114 °C. The same measure for `O=C(C(=O)c1ccc(F)cc1Br)c1ccccc1`: 62 to 66 °C. In the case of `CCCCCCCCCCCCCCCCC(O)CN(C)CCO` (stereo not given) it was 39 to 40.6 °C; in that of `CCOCc1nc2c(N)nc3cccnc3c2n1CC(C)(C)NC(=O)C1CCCCC1`, 210 to 211 °C.
